Assay results: PubChem BioAssay AID248 (DTP/NCI, 2004)
Where “and” joins values, the source holds several entries; their conditions need not be identical. Equal entries are not always repeated. Toxic doses and inconclusive results are not listed. Rule as the data show it: active = T/C of 150% or more; inactive = T/C below 125%.

System: L1210 leukemia ip in BDF1 mice, survival T/C
Assay: NCI In Vivo Anticancer Drug Screen. Data for tumor model L1210 Leukemia (intraperitoneal) in B6D2F1 (BDF1) mice
Settings: endpoint: mean survival time, higher = longer survival
How it was run: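 Tumor cells were implanted, animals were treated, and survival was followed. The result divides the treated measurement by the vehicle-control measurement.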

[1] = dose: 100.0 mg/kg/injection, schedule: Q01DX009 (ip), vehicle: saline with Tween-80
[2] = dose: 50.0 mg/kg/injection, schedule: Q01DX001 (ip), vehicle: carboxymethylcellulose (CMC)
[3] = dose: 100.0 mg/kg/injection, schedule: Q01DX001 (ip), vehicle: carboxymethylcellulose (CMC)
[4] = dose: 200.0 mg/kg/injection, schedule: Q01DX001 (ip), vehicle: carboxymethylcellulose (CMC)
[5] = dose: 400.0 mg/kg/injection, schedule: Q01DX001 (ip), vehicle: carboxymethylcellulose (CMC)
[6] = dose: 100.0 mg/kg/injection, schedule: Q04DX003 (ip), vehicle: saline with Tween-80
[7] = dose: 200.0 mg/kg/injection, schedule: Q04DX003 (ip), vehicle: saline with Tween-80

Measured: T/C

COc1cc(/C=C(/C#N)C(N)=O)cc(OC)c1OC
inactive: [1] 93 % of control | dose: 100.0 mg/kg/injection, schedule: Q04DX002 (ip), vehicle: saline with Tween-80 97 % of control | dose: 200.0 mg/kg/injection, schedule: Q01DX009 (ip), vehicle: saline with Tween-80 93 % of control | dose: 200.0 mg/kg/injection, schedule: Q04DX002 (ip), vehicle: saline with Tween-80 93 % of control | dose: 400.0 mg/kg/injection, schedule: Q01DX009 (ip), vehicle: saline with Tween-80 95 % of control | dose: 400.0 mg/kg/injection, schedule: Q04DX002 (ip), vehicle: saline with Tween-80 97 % of control

O=c1c2ccccc2[nH]c2ccc(Cl)cc12
inactive: dose: 100.0 mg/kg/injection, schedule: Q01DX009 (ip), vehicle: Klucel (hydroxypropylcellulose) (HPC) 92 % of control | dose: 100.0 mg/kg/injection, schedule: Q04DX003 (ip), vehicle: Klucel (hydroxypropylcellulose) (HPC) 96 % of control | dose: 200.0 mg/kg/injection, schedule: Q01DX009 (ip), vehicle: Klucel (hydroxypropylcellulose) (HPC) 96 % of control | dose: 200.0 mg/kg/injection, schedule: Q04DX003 (ip), vehicle: Klucel (hydroxypropylcellulose) (HPC) 91 % of control | dose: 400.0 mg/kg/injection, schedule: Q01DX009 (ip), vehicle: Klucel (hydroxypropylcellulose) (HPC) 86 % of control | dose: 400.0 mg/kg/injection, schedule: Q04DX003 (ip), vehicle: Klucel (hydroxypropylcellulose) (HPC) 100 % of control

CC12CCCCC1C1=C(CCCC1)CC2 (stereo unspecified)
inactive: [2] 97 % of control | [3] 92 % of control | [4] 94 % of control | [5] 97 % of control

COc1cc(/C=C2\CCOC2=O)c([N+](=O)[O-])cc1OC
inactive: [2] 96 % of control | [3] 94 % of control | [4] 94 % of control | [5] 90 % of control

CC(O)C#CC#CC(C)O (stereo unspecified)
inactive: dose: 12.5 mg/kg/injection, schedule: Q01DX009 (ip), vehicle: saline 103 % of control | dose: 12.5 mg/kg/injection, schedule: Q04DX002 (ip), vehicle: saline 113 % of control | dose: 25.0 mg/kg/injection, schedule: Q01DX009 (ip), vehicle: saline 109 % of control | dose: 25.0 mg/kg/injection, schedule: Q04DX002 (ip), vehicle: saline 109 % of control | dose: 50.0 mg/kg/injection, schedule: Q01DX009 (ip), vehicle: saline 101 % of control | dose: 50.0 mg/kg/injection, schedule: Q04DX002 (ip), vehicle: saline 94 % of control

NC(CSSc1ccccc1)=NC1CCCCC1
inactive: dose: 12.5 mg/kg/injection, schedule: Q04DX002 (ip), vehicle: other 98 % of control | dose: 25.0 mg/kg/injection, schedule: Q04DX002 (ip), vehicle: other 109 % of control | dose: 50.0 mg/kg/injection, schedule: Q04DX002 (ip), vehicle: other 91 % of control

O=C(O)CNCc1cccnc1
inactive: dose: 100.0 mg/kg/injection, schedule: Q01DX005 (ip), vehicle: water 94 % of control | dose: 100.0 mg/kg/injection, schedule: Q04DX003 (ip), vehicle: water 97 % of control | dose: 200.0 mg/kg/injection, schedule: Q01DX005 (ip), vehicle: water 100 % of control | dose: 200.0 mg/kg/injection, schedule: Q04DX003 (ip), vehicle: water 97 % of control | dose: 400.0 mg/kg/injection, schedule: Q01DX005 (ip), vehicle: water 96 % of control | dose: 400.0 mg/kg/injection, schedule: Q04DX003 (ip), vehicle: water 104 % of control

COc1ccccc1CCN
inactive: dose: 100.0 mg/kg/injection, schedule: Q04DX002 (ip), vehicle: saline 112 % of control | dose: 200.0 mg/kg/injection, schedule: Q04DX002 (ip), vehicle: saline 93 % of control and 108 % of control

O=C(O)C(Cc1ccccc1)N1C(=O)C2C3CCC(C3)C2C1=O (stereo unspecified)
inactive: dose: 25.0 mg/kg/injection, schedule: Q04DX003 (ip), vehicle: saline with Tween-80 93 % of control | dose: 50.0 mg/kg/injection, schedule: Q04DX003 (ip), vehicle: saline with Tween-80 93 % of control | [6] 100 % of control and 107 % of control | [7] 110 % of control | dose: 400.0 mg/kg/injection, schedule: Q04DX003 (ip), vehicle: saline with Tween-80 103 % of control

COC(=O)C1=C(O)C(=O)N(c2ccccc2)C1
inactive: dose: 100.0 mg/kg/injection, schedule: Q01DX001 (ip), vehicle: saline with Tween-80 88 % of control

CC#CC(O)(C(=O)OC1CCN(C)CC1)C(C)CC (stereo unspecified)
inactive: dose: 50.0 mg/kg/injection, schedule: Q01DX009 (ip), vehicle: saline with Tween-80 92 % of control | [1] 96 % of control | [6] 120 % of control | [7] 102 % of control

C=CC[Si](C)(C)N1CC1
inactive: dose: 12.5 mg/kg/injection, schedule: Q01DX001 (ip), vehicle: carboxymethylcellulose (CMC) 108 % of control

O=C1C=CC(=O)N1c1ccc(Cl)cc1Br
inactive: dose: 5.0 mg/kg/injection, schedule: Q01DX009 (ip), vehicle: saline with Tween-80 91 % of control | dose: 10.0 mg/kg/injection, schedule: Q01DX009 (ip), vehicle: saline with Tween-80 91 % of control | dose: 20.0 mg/kg/injection, schedule: Q01DX009 (ip), vehicle: saline with Tween-80 91 % of control
